In brackets after ≈: the same amount, converted by molar mass. Residues, ends and D or L forms follow the SMILES beside them.
Tests used:
[1] = Determination of peptide hydrophobicity with RP-HPLC (adjusted retention time); assay type: physicochemical; details: RP-HPLC C18, linear 10–55% acetonitrile over 60 min, 0.1% TFA, 25.0 °C, UV 214 nm, triplicate; for tR’: Table 3, adjusted retention time as hydrophobicity; for Adjusted retention time: Table 2, nC = carbon atoms in fatty acid chain
In short: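 Peptides at 1 g/L in water with 0.1% TFA run on a C18 column (3.0 × 100 mm, 5 µm). Elution with a linear 10–55% acetonitrile gradient over 60 min, 0.1% TFA in both eluents, 0.5 mL/min, 25.0 ± 0.1 °C. Detection at 214 nm, in triplicate.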

S. aureus ATCC 25923 = assay type: cell-based, Staphylococcus aureus; details: ATCC 25923, 18 h
In short: (§1)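 Broth microdilution per CLSI: bacteria at 5 × 10^5 CFU/mL in MHB were exposed to lipopeptides (0.5–256 µg/mL) for 18 h at 37 °C. MIC was the lowest concentration inhibiting noticeable growth; run in triplicate.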

[2] = test system: S. aureus ATCC 33591 (MRSA); assay type: cell-based, Staphylococcus aureus; details: ATCC 33591, 18 h
In short: as §1

P. aeruginosa ATCC 9027 = assay type: cell-based, Pseudomonas aeruginosa; details: ATCC 9027, 18 h
In short: as §1

C. albicans ATCC 10231 = assay type: cell-based, Candida albicans; details: ATCC 10231, 24 h, pH 7
[3] = test system: human red blood cells (hRBCs); assay type: cell-based; details: red cells of human, 1 h
In short: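 Fresh EDTA-anticoagulated human RBCs, PBS-washed, at 4% (v/v) final were exposed to lipopeptides at 0.5–256 µg/mL for 1 h at 37 °C. Released haemoglobin in supernatant read at 540 nm; PBS as 0% and 1% Triton X-100 as 100% haemolysis. Triplicates.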

E. faecium ATCC 700221 = assay type: cell-based, Enterococcus faecium; details: ATCC 700221, 18 h
In short: as §1

[4] = test system: K. pneumoniae ATCC 700603; assay type: cell-based, Klebsiella pneumoniae; details: ATCC 700603, 18 h
In short: as §1

[5] = test system: A. baumannii ATCC BAA-1605; assay type: cell-based, Acinetobacter baumannii; details: ATCC BAA-1605, 18 h
In short: as §1

K. aerogenes ATCC 13048 = assay type: cell-based, Klebsiella aerogenes; details: ATCC 13048, 18 h
In short: as §1

Row | SMILES | tR’ [1] | MIC SA (S. aureus ATCC 25923) | MIC S [2] | MIC PA (P. aeruginosa ATCC 9027) | MIC CA (C. albicans ATCC 10231) | HC50 [3] | MIC E1 (E. faecium ATCC 700221) | MIC K [4] | MIC A [5] | MIC E2 (K. aerogenes ATCC 13048) | Adjusted retention time [1]
1 | CCCCCCCCCCCCCC(=O)N[C@@H](CCSC)C(=O)N[C@@H](CCCNC(=N)N)C(=O)N[C@@H](CCCNC(=N)N)C(N)=O [compound 50, C14-MRR-NH2] (HELM PEPTIDE1{[CCCCCCCCCCCCCC(=O)[*:2]].M.R.R.[am]}$$$$V2.0) | 44.69 min | 4 µg/mL (≈ 5.96 µM) | 8 µg/mL (≈ 11.9 µM) | 8 µg/mL (≈ 11.9 µM) | 4 µg/mL (≈ 5.96 µM) | 35.11 (±0.90) µg/mL | 8 µg/mL (≈ 11.9 µM) | 128 µg/mL (≈ 191 µM) | 32 µg/mL (≈ 47.7 µM) | 128 µg/mL (≈ 191 µM) | –
2 | CCCCCCCCCCCCCC(=O)N[C@@H](CC[S+](C)[O-])C(=O)N[C@@H](CCCNC(=N)N)C(=O)N[C@@H](CCCNC(=N)N)C(N)=O (stereo partly shown) [compound 54, C14-M(O)RR-NH2] (HELM PEPTIDE1{[CCCCCCCCCCCCCC(=O)[*:2]].[CS(=O)CC[C@H](N[*:1])C(=O)[*:2]].R.R.[am]}$$$$V2.0) | 39.18 min | 32 µg/mL (≈ 46.6 µM) | 16 µg/mL (≈ 23.3 µM) | 64 µg/mL (≈ 93.2 µM) | 32 µg/mL (≈ 46.6 µM) | 116.28 (±1.77) µg/mL | 16 µg/mL (≈ 23.3 µM) | 256 µg/mL (≈ 373 µM) | 64 µg/mL (≈ 93.2 µM) | >256 (-) µg/mL | –
3 | CCCCCCCCCCCCCC(=O)N[C@@H](CCS(C)(=O)=O)C(=O)N[C@@H](CCCNC(=N)N)C(=O)N[C@@H](CCCNC(=N)N)C(N)=O [compound 58, C14-M(O2)RR-NH2] (HELM PEPTIDE1{[CCCCCCCCCCCCCC(=O)[*:2]].[CS(=O)(=O)CC[C@H](N[*:1])C(=O)[*:2]].R.R.[am]}$$$$V2.0) | 41.17 min | 16 µg/mL (≈ 22.8 µM) | 16 µg/mL (≈ 22.8 µM) | 32 µg/mL (≈ 45.5 µM) | 16 µg/mL (≈ 22.8 µM) | 70.11 (±2.93) µg/mL | 8 µg/mL (≈ 11.4 µM) | 256 µg/mL (≈ 364 µM) | 32 µg/mL (≈ 45.5 µM) | 256 µg/mL (≈ 364 µM) | –
4 | CCCCCCCCCCCCCC(=O)N[C@@H](CC(N)=O)C(=O)N[C@@H](CCCNC(=N)N)C(=O)N[C@@H](CCCNC(=N)N)C(N)=O [compound 62, C14-NRR-NH2] (HELM PEPTIDE1{[CCCCCCCCCCCCCC(=O)[*:2]].N.R.R.[am]}$$$$V2.0) | 38.71 min | 16 µg/mL (≈ 24.5 µM) | 16 µg/mL (≈ 24.5 µM) | 32 µg/mL (≈ 48.9 µM) | 16 µg/mL (≈ 24.5 µM) | 64.37 (±2.23) µg/mL | 8 µg/mL (≈ 12.2 µM) | 128 µg/mL (≈ 196 µM) | 32 µg/mL (≈ 48.9 µM) | 128 µg/mL (≈ 196 µM) | –
5 | CCCCCCCCCCCC(=O)N[C@@H](CCCC)C(=O)N[C@@H](CCCNC(=N)N)C(=O)N[C@@H](CCCNC(=N)N)C(N)=O [compound 65, C12-NleRR-NH2] (HELM PEPTIDE1{[CCCCCCCCCCCC(=O)[*:2]].[Nle].R.R.[am]}$$$$V2.0) | – | 8 µg/mL (≈ 12.8 µM) | 8 µg/mL (≈ 12.8 µM) | 8 µg/mL (≈ 12.8 µM) | 16 (>16) µg/mL | >256 µg/mL | 8 µg/mL (≈ 12.8 µM) | 256 µg/mL (≈ 410 µM) | 32 µg/mL (≈ 51.2 µM) | 256 µg/mL (≈ 410 µM) | 39.958 min
6 | CCCCCCCCCCCCCC(=O)N[C@@H](CCCC)C(=O)N[C@@H](CCCNC(=N)N)C(=O)N[C@@H](CCCNC(=N)N)C(N)=O [compound 66, C14-NleRR-NH2] (HELM PEPTIDE1{[CCCCCCCCCCCCCC(=O)[*:2]].[Nle].R.R.[am]}$$$$V2.0) | – | 4 µg/mL (≈ 6.13 µM) | 8 µg/mL (≈ 12.3 µM) | 4 µg/mL (≈ 6.13 µM) | 4 µg/mL (≈ 6.13 µM) | 37.54 (±1.39) µg/mL | 8 µg/mL (≈ 12.3 µM) | 32 µg/mL (≈ 49 µM) | 64 µg/mL (≈ 98 µM) | 32 µg/mL (≈ 49 µM) | 46.681 min
7 | CCCCCCCCCCCC(=O)N[C@@H](CCC)C(=O)N[C@@H](CCCNC(=N)N)C(=O)N[C@@H](CCCNC(=N)N)C(N)=O [compound 69, C12-NvaRR-NH2] (HELM PEPTIDE1{[CCCCCCCCCCCC(=O)[*:2]].[Nva].R.R.[am]}$$$$V2.0) | 37.67 min | 8 µg/mL (≈ 13.1 µM) | 16 µg/mL (≈ 26.2 µM) | 32 µg/mL (≈ 52.4 µM) | 32 µg/mL (≈ 52.4 µM) | 207.62 (±5.27) µg/mL | 16 µg/mL (≈ 26.2 µM) | 256 µg/mL (≈ 419 µM) | 64 µg/mL (≈ 105 µM) | 256 µg/mL (≈ 419 µM) | –
8 | CCCCCCCCCCCCCC(=O)N[C@@H](CCC)C(=O)N[C@@H](CCCNC(=N)N)C(=O)N[C@@H](CCCNC(=N)N)C(N)=O [compound 70, C14-NvaRR-NH2] (HELM PEPTIDE1{[CCCCCCCCCCCCCC(=O)[*:2]].[Nva].R.R.[am]}$$$$V2.0) | 44.53 min | 4 µg/mL (≈ 6.26 µM) | 4 µg/mL (≈ 6.26 µM) | 8 µg/mL (≈ 12.5 µM) | 4 µg/mL (≈ 6.26 µM) | 42.04 (±1.38) µg/mL | 4 µg/mL (≈ 6.26 µM) | 128 µg/mL (≈ 200 µM) | 64 µg/mL (≈ 100 µM) | 128 µg/mL (≈ 200 µM) | –
9 | CCCCCCCCCCCCCC(=O)N1CCC[C@H]1C(=O)N[C@@H](CCCNC(=N)N)C(=O)N[C@@H](CCCNC(=N)N)C(N)=O [compound 74, C14-PRR-NH2] | 42.61 min | 16 µg/mL (≈ 25.1 µM) | 8 µg/mL (≈ 12.6 µM) | 16 µg/mL (≈ 25.1 µM) | 8 µg/mL (≈ 12.6 µM) | 53.41 (±1.84) µg/mL | 8 µg/mL (≈ 12.6 µM) | 256 µg/mL (≈ 402 µM) | 64 µg/mL (≈ 100 µM) | 256 µg/mL (≈ 402 µM) | –
10 | CCCCCCCCCCCCCC(=O)N[C@@H](CCC(N)=O)C(=O)N[C@@H](CCCNC(=N)N)C(=O)N[C@@H](CCCNC(=N)N)C(N)=O [compound 78, C14-QRR-NH2] (HELM PEPTIDE1{[CCCCCCCCCCCCCC(=O)[*:2]].Q.R.R.[am]}$$$$V2.0) | 38.52 min | 16 µg/mL (≈ 24 µM) | 16 µg/mL (≈ 24 µM) | 32 µg/mL (≈ 47.9 µM) | 32 µg/mL (≈ 47.9 µM) | 72.31 (±3.00) µg/mL | 16 µg/mL (≈ 24 µM) | 256 µg/mL (≈ 383 µM) | 64 µg/mL (≈ 95.8 µM) | 256 µg/mL (≈ 383 µM) | –

Source: PMC7024302, “Ultrashort Cationic Lipopeptides–Effect of N-Terminal Amino Acid and Fatty Acid Type on Antimicrobial Activity and Hemolysis” (Molecules, 2020)
